Data on 2 compounds can be found in patent publication US6399335B1, “γ-phosphoester nucleoside triphosphates” (Advanced Research and Technology Institute, Inc., priority 1999, dated 2002).

A short description of data set [1]: Stability of PNP-NTPs in plasma (PNP release, absorbance at 405 nm). From the text:
(§1) To test the effect of more complex, biologically relevant mixtures of enzymes on PNP-NTP stability, blood was collected and centrifuged to remove cells and collect the plasma.

In data set [2] the target is T7 DNA-dependent RNA polymerase (Escherichia phage T7, UniProt P00573). Nature of the data set: Colorimetric RNA synthesis / PNP release assay. The class given is biochemical. How it is done: Production of the PNP-NTP analogs. PNP-GTP and PNP-ATP are made in one high yielding reaction from commercially available starting materials (Scheme 1). When the nucleotide analog is used in RNA synthesis, the β and γ phosphates are released (as pyrophosphate) with the attached PNP. While this compound is colorless, the enzyme alkaline phosphatase rapidly hydrolyzes the pyrophosphates to release PNP, which, at the pH of the polymerase reaction, has a yellow color that absorbs maximally at […]. [drawing 4] […]
T7 DNA-dependent RNA polymerase, sequence (P00573 whole entry): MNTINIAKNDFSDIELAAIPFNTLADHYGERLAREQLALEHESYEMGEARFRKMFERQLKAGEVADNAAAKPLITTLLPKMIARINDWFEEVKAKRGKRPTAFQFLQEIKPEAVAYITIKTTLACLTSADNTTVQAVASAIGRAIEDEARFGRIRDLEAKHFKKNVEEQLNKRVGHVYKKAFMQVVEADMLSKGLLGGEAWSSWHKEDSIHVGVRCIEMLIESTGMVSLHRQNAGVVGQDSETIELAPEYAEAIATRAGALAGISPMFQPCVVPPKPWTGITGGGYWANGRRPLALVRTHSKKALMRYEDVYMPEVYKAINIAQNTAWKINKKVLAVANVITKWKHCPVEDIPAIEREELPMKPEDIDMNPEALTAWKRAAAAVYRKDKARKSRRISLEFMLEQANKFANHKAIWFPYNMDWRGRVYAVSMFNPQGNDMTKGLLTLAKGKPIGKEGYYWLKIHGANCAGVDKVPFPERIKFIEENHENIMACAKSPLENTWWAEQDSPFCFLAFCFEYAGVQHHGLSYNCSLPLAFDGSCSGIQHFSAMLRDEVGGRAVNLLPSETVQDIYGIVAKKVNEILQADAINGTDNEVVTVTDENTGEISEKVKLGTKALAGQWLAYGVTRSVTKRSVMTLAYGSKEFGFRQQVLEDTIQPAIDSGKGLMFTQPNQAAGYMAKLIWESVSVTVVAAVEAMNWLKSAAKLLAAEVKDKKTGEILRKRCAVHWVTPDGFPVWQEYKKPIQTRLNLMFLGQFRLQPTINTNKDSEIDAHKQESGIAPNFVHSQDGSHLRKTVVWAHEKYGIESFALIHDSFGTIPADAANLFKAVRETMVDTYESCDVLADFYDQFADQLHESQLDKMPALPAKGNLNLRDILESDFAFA
PNP-NTPs are useful as continuous reporters for RNA polymerase activity. To simplify the components, transcription reactions were performed in the presence of alkaline phosphatase, a homodeoxycytidylate template that directs the incorporation of only guanylates (named WV-15C), PNP-GTP, and T7 RNA polymerase. The use of homopolymers is well accepted in assessing the activities of viral RNA polymerases, including the HCV RdRp (Lohman et al., 1997. J. Virol., 71, 8416). The reaction was monitored in a spectrometer at […], the maximum absorbance for PNP. […] There were several negative controls in this experiment, all of which yielded minimal PNP release: 1) a reaction without T7 RNA polymerase; 2) a reaction that lacked the essential cofactor, Mg^2+; 3) a reaction that contained homothymidylate (WV-15T), rather than WV-15C. […]

Data set [3] has as its system alkaline phosphatase. As to conditions: incubation with alkaline phosphatase, without T7 RNA polymerase.
From the text: as §1

Data set [4] has as its target brome mosaic virus RdRp (Brome mosaic virus, UniProt P03594). In words: RNA synthesis assay. The class given is biochemical. From the text:
(§2) PNP-NTPs are useful reporters for the activities of a variety of RNA polymerases. […] PNP release was also observed during RNA synthesis by the SP6 RNA polymerase.

Data set [5] has as its target RdRp of bovine viral diarrhea virus (Bovine viral diarrhea virus, UniProt P19711). In words: RNA synthesis assay. The class given is biochemical. As to conditions: compared with T7 polymerase and brome mosaic virus RdRp results.
From the text: as §2

brome mosaic virus RdRp, sequence (P03594 whole entry): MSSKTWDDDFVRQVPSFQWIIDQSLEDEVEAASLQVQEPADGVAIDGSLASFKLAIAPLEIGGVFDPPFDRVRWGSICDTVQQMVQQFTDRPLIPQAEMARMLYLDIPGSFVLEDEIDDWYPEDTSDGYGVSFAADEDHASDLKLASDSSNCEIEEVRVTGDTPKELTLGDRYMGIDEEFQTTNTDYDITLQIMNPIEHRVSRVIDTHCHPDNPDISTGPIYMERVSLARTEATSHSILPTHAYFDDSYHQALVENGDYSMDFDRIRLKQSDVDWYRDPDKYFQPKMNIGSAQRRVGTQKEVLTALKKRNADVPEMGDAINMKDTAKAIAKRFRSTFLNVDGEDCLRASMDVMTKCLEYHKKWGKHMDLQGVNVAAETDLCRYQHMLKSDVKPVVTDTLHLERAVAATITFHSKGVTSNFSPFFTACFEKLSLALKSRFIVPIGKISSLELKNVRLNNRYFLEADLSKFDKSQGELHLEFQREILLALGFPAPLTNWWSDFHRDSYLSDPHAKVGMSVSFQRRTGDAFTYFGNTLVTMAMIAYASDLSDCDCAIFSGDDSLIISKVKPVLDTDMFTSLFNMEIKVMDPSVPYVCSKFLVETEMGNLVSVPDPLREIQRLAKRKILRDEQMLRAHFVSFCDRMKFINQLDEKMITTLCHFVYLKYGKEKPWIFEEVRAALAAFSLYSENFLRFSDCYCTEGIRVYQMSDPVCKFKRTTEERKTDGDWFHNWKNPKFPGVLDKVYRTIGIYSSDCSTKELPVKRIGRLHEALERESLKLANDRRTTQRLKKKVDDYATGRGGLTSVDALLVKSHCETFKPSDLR
brome mosaic virus RdRp, sequence (P03588 whole entry, further chain): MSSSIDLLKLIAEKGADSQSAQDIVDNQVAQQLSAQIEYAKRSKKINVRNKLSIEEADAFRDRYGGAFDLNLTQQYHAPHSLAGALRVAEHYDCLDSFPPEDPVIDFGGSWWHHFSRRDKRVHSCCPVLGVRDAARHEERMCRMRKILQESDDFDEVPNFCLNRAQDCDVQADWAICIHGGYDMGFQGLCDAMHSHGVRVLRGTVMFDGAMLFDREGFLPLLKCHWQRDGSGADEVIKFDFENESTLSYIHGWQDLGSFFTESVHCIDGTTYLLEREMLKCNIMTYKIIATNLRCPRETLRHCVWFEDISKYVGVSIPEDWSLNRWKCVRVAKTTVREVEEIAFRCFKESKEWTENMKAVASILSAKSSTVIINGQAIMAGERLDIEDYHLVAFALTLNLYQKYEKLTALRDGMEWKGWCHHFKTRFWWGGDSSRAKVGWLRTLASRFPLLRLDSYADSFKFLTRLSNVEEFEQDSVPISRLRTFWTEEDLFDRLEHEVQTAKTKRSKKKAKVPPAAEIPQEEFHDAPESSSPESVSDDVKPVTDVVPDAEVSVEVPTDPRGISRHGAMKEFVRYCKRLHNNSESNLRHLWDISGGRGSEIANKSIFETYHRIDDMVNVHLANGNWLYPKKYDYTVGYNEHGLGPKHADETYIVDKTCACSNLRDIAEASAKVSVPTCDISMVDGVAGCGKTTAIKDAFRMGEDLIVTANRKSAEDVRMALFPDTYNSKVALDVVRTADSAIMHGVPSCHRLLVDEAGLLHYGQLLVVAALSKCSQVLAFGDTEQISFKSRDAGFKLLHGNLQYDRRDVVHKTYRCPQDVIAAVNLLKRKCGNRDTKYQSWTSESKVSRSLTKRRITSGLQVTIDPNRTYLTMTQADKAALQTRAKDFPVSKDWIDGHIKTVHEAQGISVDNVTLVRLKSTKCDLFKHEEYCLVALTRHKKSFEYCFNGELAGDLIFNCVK
RdRp of bovine viral diarrhea virus, sequence (P19711 3270-3988): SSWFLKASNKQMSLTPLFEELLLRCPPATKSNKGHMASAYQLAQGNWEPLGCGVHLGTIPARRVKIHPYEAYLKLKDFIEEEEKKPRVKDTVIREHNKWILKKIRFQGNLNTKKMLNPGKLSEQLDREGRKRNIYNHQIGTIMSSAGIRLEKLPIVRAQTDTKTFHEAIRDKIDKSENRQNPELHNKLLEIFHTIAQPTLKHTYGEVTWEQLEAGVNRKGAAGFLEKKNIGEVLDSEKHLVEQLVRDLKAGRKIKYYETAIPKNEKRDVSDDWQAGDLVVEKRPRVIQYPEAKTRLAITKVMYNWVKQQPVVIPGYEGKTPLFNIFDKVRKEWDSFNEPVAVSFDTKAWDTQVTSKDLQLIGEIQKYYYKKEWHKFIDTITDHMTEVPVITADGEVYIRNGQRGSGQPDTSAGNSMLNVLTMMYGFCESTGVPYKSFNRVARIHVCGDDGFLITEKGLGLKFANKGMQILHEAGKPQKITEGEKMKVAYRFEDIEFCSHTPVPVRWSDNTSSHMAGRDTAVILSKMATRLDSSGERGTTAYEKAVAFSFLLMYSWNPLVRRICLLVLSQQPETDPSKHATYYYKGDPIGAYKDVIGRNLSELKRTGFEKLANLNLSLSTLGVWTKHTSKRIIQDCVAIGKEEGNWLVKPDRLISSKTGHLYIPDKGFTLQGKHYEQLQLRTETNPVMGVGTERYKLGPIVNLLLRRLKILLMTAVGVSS

For the compound `Nc1ncnc2c1ncn2[C@@H]1O[C@H](COP(=O)(O)OP(=O)(O)OP(=O)(O)Oc2ccc([N+](=O)[O-])cc2)[C@@H](O)[C@H]1O` [PNP-ATP, Adenosine-5′-(γ-4-nitrophenyl)triphosphate], in data set [1] (WV-15T template, compared with PNP-GTP results), the “trends in plasma reactions” value is “Identical trends”. In data set [2] (homothymidylate template), the “increase in absorbance at 405 nm” value is reported as “linear increase”.

`Nc1nc2c(ncn2[C@@H]2O[C@H](COP(=O)(O)OP(=O)(O)OP(=O)(O)Oc3ccc([N+](=O)[O-])cc3)[C@@H](O)[C@H]2O)c(=O)[nH]1` [PNP-GTP, Guanosine-5′-(γ-4-nitrophenyl)triphosphate]: the “PNP release / resistance to phosphatases” value in data set [3] is “did not result in PNP release”. Also, the “substrate for the polymerase” value in data set [4] and in data set [2] was “suitable substrate” in each case. Besides, the “RNA synthesis directed when used in place of GTP” value is “levels similar to reactions containing normal GTP” in data set [4] (compared with normal GTP), “Identical results” in data set [5] and “levels similar to reactions containing normal GTP” in data set [2] (compared with normal GTP). For the same compound, the “absorbance at 405 nm” value in data set [1] (plasma to 10% final volume, 7 h incubation) is “did not increase the absorbance at 405 nm”. The PNP levels entry in data set [1] (plasma with alkaline phosphatase, polymerase and noncognate template, 7 hours) is “increased PNP levels slightly”. Also, the “increase in absorbance due to PNP release” value in data set [2] (alkaline phosphatase, WV-15C homodeoxycytidylate template, monitored at 405 nM) is “linear over a two-hour period”. Besides, in data set [2] (complete transcription reaction with cognate template, 3 h after start), the “absorbance higher than background” value was greater than 7 fold. For the same compound, the absorbance vs background entry in data set [2] (ten minutes after start, alkaline phosphatase, WV-15C template, 405 nM) is on record as “absorbance at levels distinctly above background”.
